The values that follow come from article PMC12621043, “Un-LOK-ing a New Approach for Conformational Selective Targeting of STK10 (LOK)” (ACS Medicinal Chemistry Letters, 2025).

What all share (test): DSF Tm panel
Holding throughout (type): binding
Holding throughout (settings): 10 μM compound

For test [1], the target named is T1, FGFR3A (Homo sapiens, UniProt P22607).
T1 construct: purchased in-house DSF kinase panel (SGC-style construct names; the trailing letter is the construct ID)

The target of test [2] is T2, CAMK1GA (Homo sapiens, UniProt Q96NX5).
T2 construct: purchased in-house DSF kinase panel (SGC-style construct names; the trailing letter is the construct ID)
T2 sequence (Q96NX5 18-316): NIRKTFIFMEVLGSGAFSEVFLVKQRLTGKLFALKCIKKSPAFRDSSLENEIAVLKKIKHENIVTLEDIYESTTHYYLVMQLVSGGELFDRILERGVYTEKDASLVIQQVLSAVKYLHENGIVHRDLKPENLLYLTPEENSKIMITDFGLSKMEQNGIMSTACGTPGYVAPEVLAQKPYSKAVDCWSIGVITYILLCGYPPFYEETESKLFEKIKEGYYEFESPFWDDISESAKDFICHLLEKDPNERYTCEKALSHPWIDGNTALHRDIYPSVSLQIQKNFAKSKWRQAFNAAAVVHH

The target of test [3] is T3, TOPKA (Homo sapiens, UniProt Q96KB5).
T3 construct: purchased in-house DSF kinase panel (SGC-style construct names; the trailing letter is the construct ID)
T3 sequence (Q96KB5 1-322): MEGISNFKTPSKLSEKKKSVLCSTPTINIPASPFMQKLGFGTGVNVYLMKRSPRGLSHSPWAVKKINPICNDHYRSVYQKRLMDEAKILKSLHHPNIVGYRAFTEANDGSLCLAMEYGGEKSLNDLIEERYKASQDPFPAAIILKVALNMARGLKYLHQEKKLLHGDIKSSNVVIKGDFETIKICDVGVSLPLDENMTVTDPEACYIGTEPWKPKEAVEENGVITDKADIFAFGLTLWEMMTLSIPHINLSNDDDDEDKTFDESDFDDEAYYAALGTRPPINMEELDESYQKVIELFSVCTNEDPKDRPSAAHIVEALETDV

The target of test [4] is T4, AURKBA (Homo sapiens, UniProt Q96GD4).
T4 construct: purchased in-house DSF kinase panel (SGC-style construct names; the trailing letter is the construct ID)
T4 sequence (Q96GD4 whole entry): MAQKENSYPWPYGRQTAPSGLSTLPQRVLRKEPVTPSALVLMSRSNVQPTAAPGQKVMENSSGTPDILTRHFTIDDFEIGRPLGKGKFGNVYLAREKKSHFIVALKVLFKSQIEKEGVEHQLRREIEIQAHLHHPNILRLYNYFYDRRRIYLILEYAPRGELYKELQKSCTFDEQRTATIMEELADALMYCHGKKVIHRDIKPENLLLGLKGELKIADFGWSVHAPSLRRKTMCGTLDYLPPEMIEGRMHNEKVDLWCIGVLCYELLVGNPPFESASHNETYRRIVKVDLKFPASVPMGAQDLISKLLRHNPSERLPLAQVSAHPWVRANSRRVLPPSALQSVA

Test [5] addresses T5, MAPK8B (Homo sapiens, UniProt P45983).
T5 construct: purchased in-house DSF kinase panel (SGC-style construct names; the trailing letter is the construct ID)

For test [6], the target named is T6, EPHA4A (Homo sapiens, UniProt P54764).
T6 construct: purchased in-house DSF kinase panel (SGC-style construct names; the trailing letter is the construct ID)
T6 sequence (P54764 621-882): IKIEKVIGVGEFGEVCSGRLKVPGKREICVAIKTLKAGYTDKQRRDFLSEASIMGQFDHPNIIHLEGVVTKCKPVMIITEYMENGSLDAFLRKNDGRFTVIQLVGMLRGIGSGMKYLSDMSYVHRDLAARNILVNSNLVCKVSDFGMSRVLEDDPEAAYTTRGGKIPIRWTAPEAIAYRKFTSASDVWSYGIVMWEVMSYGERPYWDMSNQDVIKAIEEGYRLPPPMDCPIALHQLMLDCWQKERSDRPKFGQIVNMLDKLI

Test [7] has as its target T7, MSSK1A (Homo sapiens, UniProt Q9UPE1).
T7 construct: purchased in-house DSF kinase panel (SGC-style construct names; the trailing letter is the construct ID)

In test [8] the target is T8, NQO2A (Homo sapiens, UniProt P16083).
T8 construct: purchased in-house DSF kinase panel (SGC-style construct names; the trailing letter is the construct ID)
T8 sequence (P16083 1-231): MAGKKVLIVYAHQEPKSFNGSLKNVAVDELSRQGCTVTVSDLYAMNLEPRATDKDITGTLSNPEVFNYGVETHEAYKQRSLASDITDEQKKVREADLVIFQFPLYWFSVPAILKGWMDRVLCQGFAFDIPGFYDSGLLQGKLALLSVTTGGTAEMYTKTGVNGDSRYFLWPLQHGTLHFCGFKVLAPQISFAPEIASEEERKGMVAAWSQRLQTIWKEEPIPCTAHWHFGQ

Test [9] deals with T9, BRPF1B (Homo sapiens, UniProt P55201).
T9 construct: purchased in-house DSF kinase panel (SGC-style construct names; the trailing letter is the construct ID)
T9 sequence (P55201 1-1214): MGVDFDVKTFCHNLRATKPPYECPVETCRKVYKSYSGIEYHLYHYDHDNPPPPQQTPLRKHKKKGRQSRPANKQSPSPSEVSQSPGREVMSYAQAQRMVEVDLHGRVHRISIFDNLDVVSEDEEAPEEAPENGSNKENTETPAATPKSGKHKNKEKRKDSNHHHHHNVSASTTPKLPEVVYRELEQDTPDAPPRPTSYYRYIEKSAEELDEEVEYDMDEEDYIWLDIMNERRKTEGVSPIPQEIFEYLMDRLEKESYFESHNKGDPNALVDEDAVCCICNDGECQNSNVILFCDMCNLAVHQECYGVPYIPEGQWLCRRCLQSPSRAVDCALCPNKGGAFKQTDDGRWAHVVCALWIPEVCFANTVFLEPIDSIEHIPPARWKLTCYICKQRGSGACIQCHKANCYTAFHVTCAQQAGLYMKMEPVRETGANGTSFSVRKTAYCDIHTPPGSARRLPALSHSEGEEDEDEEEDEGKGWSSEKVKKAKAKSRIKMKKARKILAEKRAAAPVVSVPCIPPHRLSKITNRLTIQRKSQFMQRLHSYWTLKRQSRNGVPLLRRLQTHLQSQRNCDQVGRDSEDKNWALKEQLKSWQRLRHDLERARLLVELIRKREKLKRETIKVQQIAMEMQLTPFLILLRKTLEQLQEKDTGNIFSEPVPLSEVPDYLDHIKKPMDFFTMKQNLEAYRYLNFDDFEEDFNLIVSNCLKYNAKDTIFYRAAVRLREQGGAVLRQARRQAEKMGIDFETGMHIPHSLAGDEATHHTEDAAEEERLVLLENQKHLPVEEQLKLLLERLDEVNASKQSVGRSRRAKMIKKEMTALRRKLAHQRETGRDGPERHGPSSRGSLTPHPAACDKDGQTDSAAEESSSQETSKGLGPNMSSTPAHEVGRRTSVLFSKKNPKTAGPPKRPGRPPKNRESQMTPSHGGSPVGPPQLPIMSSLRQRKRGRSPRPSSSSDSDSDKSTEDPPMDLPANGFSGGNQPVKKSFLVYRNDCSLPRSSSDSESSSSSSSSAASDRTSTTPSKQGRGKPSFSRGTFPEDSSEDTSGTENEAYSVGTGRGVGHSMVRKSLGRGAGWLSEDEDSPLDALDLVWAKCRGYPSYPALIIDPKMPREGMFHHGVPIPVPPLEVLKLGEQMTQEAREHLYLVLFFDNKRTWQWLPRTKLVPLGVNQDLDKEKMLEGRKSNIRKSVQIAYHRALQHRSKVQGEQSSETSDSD

T5 sequence (P45983 1-364): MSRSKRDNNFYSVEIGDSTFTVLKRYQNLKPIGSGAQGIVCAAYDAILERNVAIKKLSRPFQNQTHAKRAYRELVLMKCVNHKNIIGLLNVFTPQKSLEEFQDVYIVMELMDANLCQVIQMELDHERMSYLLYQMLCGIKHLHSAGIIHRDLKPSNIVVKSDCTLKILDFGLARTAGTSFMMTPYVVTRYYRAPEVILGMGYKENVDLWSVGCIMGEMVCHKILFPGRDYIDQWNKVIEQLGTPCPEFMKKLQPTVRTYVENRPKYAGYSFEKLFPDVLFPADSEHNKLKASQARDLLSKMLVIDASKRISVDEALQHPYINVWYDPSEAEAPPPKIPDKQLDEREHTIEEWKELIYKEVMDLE
T1 sequence (P22607 472-761): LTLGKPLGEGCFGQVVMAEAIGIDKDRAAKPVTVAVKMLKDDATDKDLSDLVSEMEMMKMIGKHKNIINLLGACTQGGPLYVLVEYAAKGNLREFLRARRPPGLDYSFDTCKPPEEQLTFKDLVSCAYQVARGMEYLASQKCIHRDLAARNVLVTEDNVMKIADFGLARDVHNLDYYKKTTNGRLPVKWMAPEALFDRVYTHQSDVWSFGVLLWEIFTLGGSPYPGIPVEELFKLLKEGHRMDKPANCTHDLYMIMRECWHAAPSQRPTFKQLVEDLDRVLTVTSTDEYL
T7 sequence (Q9UPE1 79-565): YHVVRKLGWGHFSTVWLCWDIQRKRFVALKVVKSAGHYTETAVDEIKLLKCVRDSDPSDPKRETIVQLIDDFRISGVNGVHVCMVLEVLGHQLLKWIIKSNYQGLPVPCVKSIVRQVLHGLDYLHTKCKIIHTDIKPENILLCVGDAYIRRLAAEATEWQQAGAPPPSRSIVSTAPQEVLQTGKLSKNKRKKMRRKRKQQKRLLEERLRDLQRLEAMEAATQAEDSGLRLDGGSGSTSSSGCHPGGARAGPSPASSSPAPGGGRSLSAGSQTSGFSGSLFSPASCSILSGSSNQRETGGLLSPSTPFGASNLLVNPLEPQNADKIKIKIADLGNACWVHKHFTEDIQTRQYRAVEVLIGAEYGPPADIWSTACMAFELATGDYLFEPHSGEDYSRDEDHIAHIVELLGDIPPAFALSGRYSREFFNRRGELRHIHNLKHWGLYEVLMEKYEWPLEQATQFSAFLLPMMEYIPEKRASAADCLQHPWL

Consider `O=C(NCc1ccccc1)Nc1ccc2cc1OCCOCCNc1ccn3ncc-2c3n1` [compound 16], for which the values for the ΔTm at 10 µM in [1], in [2] and in [3] were 5 °C, -0.3 °C and 0.4 °C, respectively.
For `O=C(NCc1ccccc1Cl)Nc1ccc2cc1OCCOCCNc1ccn3ncc-2c3n1` [compound 17], the figures for the ΔTm at 10 µM in test [1], in test [2] and in test [3] were 2.1 °C, 0.9 °C and 0.4 °C, respectively.
`O=C(NCc1cccc(Cl)c1)Nc1ccc2cc1OCCOCCNc1ccn3ncc-2c3n1` [compound 18]: the ΔTm (commonly the shift of the melting midpoint relative to a reference) at 10 µM in test [1] stood at 3.6 °C; in test [2] it was 0.8 °C; in test [3], 0.5 °C.
`O=C(NCc1ccc(Cl)cc1)Nc1ccc2cc1OCCOCCNc1ccn3ncc-2c3n1` [compound 19]: the ΔTm at 10 µM in [1] worked out at 1.7 °C; in test [2], 0.9 °C; in test [3], 0.2 °C.
The matching figures for `O=C(NCc1ccc(Cl)cc1Cl)Nc1ccc2cc1OCCOCCNc1ccn3ncc-2c3n1` [compound 20]: 1.4 °C, 2.7 °C and 1.2 °C.
As to `O=C(NCc1ccc(Cl)cc1F)Nc1ccc2cc1OCCOCCNc1ccn3ncc-2c3n1` [compound 21], the shift in melting temperature (ΔTm) at 10 µM came out at 1.6 °C in [1], 2 °C in test [2] and 0.6 °C in test [3].
The matching figures for `Cc1cc(Cl)ccc1CNC(=O)Nc1ccc2cc1OCCOCCNc1ccn3ncc-2c3n1` [compound 23]: 2.5 °C, 2 °C and 1.5 °C.
For the compound `Cc1cc(Br)ccc1CNC(=O)Nc1ccc2cc1OCCOCCNc1ccn3ncc-2c3n1` [compound 24], the ΔTm at 10 µM was 7.7 °C in [4]; 0.6 °C in [5]; 0.2 °C in test [6]; 0.2 °C in test [7]; -1.9 °C in test [8]; 1.6 °C in [9].
On to `Cc1ccc(F)cc1CNC(=O)Nc1ccc2cc1OCCOCCNc1ccn3ncc-2c3n1` [compound 26], for which the ΔTm at 10 µM in [4] is 7.8 °C; in test [5], 0.5 °C; in test [6] it was 0.3 °C; in [7], 0.4 °C; in test [8], -1.5 °C; in test [9], 1 °C.
Turning to `O=C(NCc1ccccc1C(F)(F)F)Nc1ccc2cc1OCCOCCNc1ccn3ncc-2c3n1` [compound 27], the ΔTm at 10 µM in [4] is 8.6 °C; in test [5] it was 0.5 °C; in [6], 0.3 °C; in [7], 0.5 °C; in [8] it was -4.1 °C; in test [9], 1.9 °C.
Take `O=C(NCc1ccc(C(F)(F)F)cc1)Nc1ccc2cc1OCCOCCNc1ccn3ncc-2c3n1` [compound 28]: the ΔTm at 10 µM in [4] is 9 °C; in test [5], 0.9 °C; in test [6] it was 0.5 °C; in test [7] it was 0.3 °C; in test [8], -2.7 °C; in test [9] it was 2.2 °C.
In the case of `COc1ccccc1CNC(=O)Nc1ccc2cc1OCCOCCNc1ccn3ncc-2c3n1` [compound 29], the ΔTm at 10 µM in [4] was 6.6 °C; in test [5], 1.1 °C; in test [6], 0.3 °C; in [7], 0.5 °C; in test [8], -0.5 °C; in test [9] it was -0.1 °C.
For `COc1cccc(CNC(=O)Nc2ccc3cc2OCCOCCNc2ccn4ncc-3c4n2)c1` [compound 30], the ΔTm at 10 µM was 7.3 °C in test [4]; 1.2 °C in test [5]; 0.3 °C in [6]; 0.4 °C in [7]; -0.5 °C in [8]; 0.2 °C in [9].
With `COc1ccc(CNC(=O)Nc2ccc3cc2OCCOCCNc2ccn4ncc-3c4n2)cc1` [compound 31], the ΔTm at 10 µM was 7.6 °C in test [4]; 1.1 °C in test [5]; 0.4 °C in [6]; 0.7 °C in test [7]; -0.6 °C in test [8]; 1 °C in [9].
Turning to `COc1ccc(CNC(=O)Nc2ccc3cc2OCCOCCNc2ccn4ncc-3c4n2)cc1F` [compound 32], the ΔTm at 10 µM in test [4] was 7.9 °C; in test [5], 0.8 °C; in [6], 0.4 °C; in test [7] it was 0.4 °C; in test [8], -2.8 °C; in test [9], 1.5 °C.
In the case of `COc1cc(CNC(=O)Nc2ccc3cc2OCCOCCNc2ccn4ncc-3c4n2)ccc1F` [compound 33], the ΔTm at 10 µM in test [4] is 9.1 °C; in test [5], 0.9 °C; in test [6], 0.4 °C; in test [7], 0.4 °C; in [8], -1.5 °C; in [9] it was 1.2 °C.
Consider `C[C@H](NC(=O)Nc1ccc2cc1OCCOCCNc1ccn3ncc-2c3n1)c1ccccc1` [compound 34], for which the ΔTm at 10 µM is 7.1 °C in [4]; 0.9 °C in test [5]; 0.3 °C in test [6]; 0.4 °C in test [7]; -0.5 °C in test [8]; 0.5 °C in [9].
`CN1CCN(C(=O)Nc2ccc3cc2OCCOCCNc2ccn4ncc-3c4n2)CC1` [compound 35]: the ΔTm at 10 µM is 3 °C in [1], 0 °C in test [2] and -0.4 °C in test [3].
